Measured values as given in patent publication US20230091608A1, “COMPOUND AND DIAGNOSTIC SYSTEM COMPRISING SAID COMPOUND FOR THE GUSTATORY DETECTION OF INFLAMMATIONS IN THE ORAL CAVITY” (Julius-Maximilians-Universitaet Wuerzburg, priority 2019, published 2023).

system: aminopeptidase (AP); test: Cleavage of [Ia-X] constructs by aminopeptidase (AP), LC/MS for complete degradation; type: biochemical
Method: To trigger maximum gustatory perception, the last amino acid from the modified denatonium must also be removed by the aminopeptidase.
The resulting constructs were incubated with AP for 24 h and analyzed by LC/MS for complete degradation (Table 2).

Compound | Detectable after 24 h incubation with AP
NC(=O)C[C@H](N)C(=O)O [Asparagine] | +
N[C@@H](CC(=O)O)C(=O)O [Aspartic acid] | +
N[C@@H](CS)C(=O)O [Cysteine] | −
N[C@@H](CCC(=O)O)C(=O)O [Glutamic acid] | −
NC(=O)CC[C@H](N)C(=O)O [Glutamine] | +
NCC(=O)O [Glycine] | +
N[C@@H](Cc1c[nH]cn1)C(=O)O [Histidine] | +
CC[C@H](C)[C@H](N)C(=O)O [Isoleucine] | +
CC(C)C[C@H](N)C(=O)O [Leucine] | −
CSCC[C@H](N)C(=O)O [Methionine] | −
N[C@@H](Cc1ccccc1)C(=O)O [Phenylalanine] | −
N[C@@H](CO)C(=O)O [Serine] | −
C[C@@H](O)[C@H](N)C(=O)O [Threonine] | +
N[C@@H](Cc1c[nH]c2ccccc12)C(=O)O [Tryptophan] | +
CC(C)[C@H](N)C(=O)O [Valine] | +
Alanine | −
Arginine | −
Lysine | −
Proline | +
Tyrosine | −
